# Tested on: 782815-120-R-J1-PDC complex spheroid viability
# Assay: Anticancer human tumor 782815-120-R-J1-PDC patient-derived colon adenocarcinoma cell line growth inhibition [RAS]
# Conditions: for IC50: curve of first compound; for viability, T/C: stronger effect = lower value
# Text: RAS pathway inhibitors in Combinations in Complex Spheroids
# A high-throughput screen of multi-cell type tumor spheroids was designed to identify active combinations of RAS pathway inhibitors and targeted small molecules. Complex spheroids include a stromal component modeled by human endothelial cells (HUVEC) and fibroblasts modeled by human mesenchymal stem cells (MSCs). The concentration ranges selected for each drug and investigational agent were based upon clinically achievable concentrations if the clinical Cmax of the agent was known.
# Compounds. The drugs and investigational agents: abemaciclib (NSC768073), cobimetinib (NSC768068), divarasib (GDC6063, NSC841802), docetaxel (NSC628503), GDC-1971 (RLY-1971, NSC841576), gemcitabine (NSC613327), inavolisib (NSC800729), ipatasertib (NSC767898), KB-0742 (NSC834161), MRTX-1133 (NSC836407), osimertinib (NSC779217), RMC-4630 (NSC839698), RMC-6236 (NSC851965), RMC-6291 (NSC852671), Ro-3306 (NSC812927), sapanisertib (NSC764658), SN-38 (NSC673596), staurosporine (NSC755774), SY5609 (NSC837396), and tovorafenib (DAY101, NSC766906), were obtained from the National Cancer Institute (NCI) Developmental Therapeutics Program Chemical Repository. The FDA-approved anticancer drug set is available from the NCI Developmental Therapeutics Program. […] The stock solutions were prepared in dimethyl sulfoxide (DMSO, Sigma-Aldrich, St. Louis, MO, cat. D2650) at 800-fold the tested concentration and stored at -70 degrees C prior to their use. All drugs and investigational agents were tested over a range starting from a high concentration at or near the clinical Cmax and decreasing in half-log increments. If the clinical Cmax for an agent had not been determined, the highest concentration tested was 10 microM.
# Cell Culture. All cells were maintained in an incubator at 37 degrees C and 5% CO2 with 95% humidity. The PDC lines were cultured according to standard operating procedures established by the NCI PDMR. All PDCs were thawed and cultured in Matrigel-coated flasks prepared with a working solution of 1X Ham's F-12 nutrient mix, without supplementation (Invitrogen, Waltham, MA, cat. 11765054), 100 U/mL penicillin-streptomycin (Invitrogen, cat. 15140122), and 2.5% Matrigel (Corning Inc., Corning, NY, cat. 354248) for the first three passages. The 362531-283-R-J2-PDC and 782815-120-R-J1-PDC lines were cultured in 6C/Colon 1B media, which includes advanced DMEM/F-12 (Thermo Fisher Scientific, cat. 12634028), 10 mM HEPES (Thermo Fisher Scientific, cat. 15630080), 1X GlutaMAX supplement (Thermo Fisher Scientific, cat. 35050061), 0.1 mg/mL primocin (InvivoGen, San Diego, CA, cat. ant-pm-2), 10% defined fetal bovine serum, heat inactivated (HyClone Laboratories Inc., Logan, UT, cat. SH30070.03HI), 50% L-WRN conditioned media (ATCC, cat. CRL-3276), 1.25 mM N-Acetyl-L-cysteine (Sigma-Aldrich, cat. A9165), 10 mM nicotinamide (Sigma-Aldrich, cat. N0636), 1X B-27 supplement (Thermo Fisher Scientific, cat. 17504044), 1X N-2 supplement (Thermo Fisher Scientific, cat. 17502048), 50 ng/mL human EGF (Thermo Fisher Scientific, cat. PHG0311), and 10 microM Y-27632 dihydrochloride (Tocris Bioscience, cat. 1254). The K12877-001-R-J1-PDC line was cultured in 6I media, which includes all 6C/Colon 1B media plus 10 ng/mL human FGF-10 (PeproTech, cat. 100-26), 1 ng/mL human FGF-2 (PeproTech, cat. 100-18B), 1 µM prostaglandin E2 (Tocris Bioscience, cat. 2296), […] hydrocortisone (Sigma-Aldrich, cat. H4001), and […] bovine insulin (Sigma-Aldrich, cat. I6634). The K86415-001-R-J1-PDC line was cultured in 6D media, which includes all 6C/Colon 1B media components minus the L-WRN conditioned media. The 485176-168-R4-J1-PDC was cultured in PANC media, which includes all 6C/Colon 1B media plus 100 ng/mL human FGF-10 (PeproTech, cat. 100-26), 500 nM SB-431542 (Selleckchem, cat. S1067), and 10 nM gastrin (Tocris Bioscience, cat. 3006). […]
# [1] = second compound 0.0316 µM, first compound 0.0316 µM
# [2] = second compound 0.0316 µM, first compound 0.1 µM
# [3] = second compound 0.0316 µM, first compound 0.316 µM
# [4] = second compound 0.0316 µM, first compound 1 µM
# [5] = second compound 0.0316 µM, first compound 3.16 µM
# [6] = second compound 0.0316 µM, first compound 10 µM
# [7] = second compound 0.1 µM, first compound 0.0316 µM
# [8] = second compound 0.1 µM, first compound 0.1 µM
# [9] = second compound 0.1 µM, first compound 0.316 µM
# [10] = second compound 0.1 µM, first compound 1 µM
# [11] = second compound 0.1 µM, first compound 3.16 µM
# [12] = second compound 0.1 µM, first compound 10 µM
# [13] = second compound 0.316 µM, first compound 0.0316 µM
# [14] = second compound 0.316 µM, first compound 0.1 µM
# [15] = second compound 0.316 µM, first compound 0.316 µM
# [16] = second compound 0.316 µM, first compound 1 µM
# [17] = second compound 0.316 µM, first compound 3.16 µM
# [18] = second compound 0.316 µM, first compound 10 µM
# [19] = second compound 1 µM, first compound 0.0316 µM
# [20] = second compound 1 µM, first compound 0.1 µM
# [21] = second compound 1 µM, first compound 0.316 µM
# [22] = second compound 1 µM, first compound 1 µM
# [23] = second compound 1 µM, first compound 3.16 µM
# [24] = second compound 1 µM, first compound 10 µM
# [25] = second compound 3.16 µM, first compound 0.0316 µM
# [26] = second compound 3.16 µM, first compound 0.1 µM
# [27] = second compound 3.16 µM, first compound 0.316 µM
# [28] = second compound 3.16 µM, first compound 1 µM
# [29] = second compound 3.16 µM, first compound 3.16 µM
# [30] = second compound 3.16 µM, first compound 10 µM
# [31] = second compound 10 µM, first compound 0.0316 µM
# [32] = second compound 10 µM, first compound 0.1 µM
# [33] = second compound 10 µM, first compound 0.316 µM
# [34] = second compound 10 µM, first compound 1 µM
# [35] = second compound 10 µM, first compound 3.16 µM
# [36] = second compound 10 µM, first compound 10 µM
# 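Further: spheroids exposed to compounds for 7 days before reading.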
# 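Wherever viability, T/C is given: 100% = DMSO vehicle control viability.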
structure (smiles),measurement,setting,value
CC(C)NCC(C(=O)N1CCN(c2ncnc3c2C(C)CC3O)CC1)c1ccc(Cl)cc1 (centres undefined) + C#Cc1c(F)ccc2cc(O)cc(-c3ncc4c(N5CC6CCC(C5)N6)nc(OCC56CCCN5CC(F)C6)nc4c3F)c12,IC50,second compound 0.0316 µM,> 10 µM
same,IC50,second compound 0.1 µM,> 10 µM
same,IC50,second compound 0.316 µM,> 10 µM
same,IC50,second compound 1 µM,> 10 µM
same,IC50,second compound 3.16 µM,> 10 µM
same,IC50,second compound 10 µM,> 10 µM
same,"viability, T/C",[1],95.9%
same,"viability, T/C",[2],106%
same,"viability, T/C",[3],95.6%
same,"viability, T/C",[4],103%
same,"viability, T/C",[5],96.3%
same,"viability, T/C",[6],94.3%
same,"viability, T/C",[7],95.5%
same,"viability, T/C",[8],104%
same,"viability, T/C",[9],101%
same,"viability, T/C",[10],98.1%
same,"viability, T/C",[11],100%
same,"viability, T/C",[12],97%
same,"viability, T/C",[13],109%
same,"viability, T/C",[14],108%
same,"viability, T/C",[15],93.5%
same,"viability, T/C",[16],103%
same,"viability, T/C",[17],96.3%
same,"viability, T/C",[18],105%
same,"viability, T/C",[19],108%
same,"viability, T/C",[20],113%
same,"viability, T/C",[21],90.7%
same,"viability, T/C",[22],94.6%
same,"viability, T/C",[23],103%
same,"viability, T/C",[24],103%
same,"viability, T/C",[25],104%
same,"viability, T/C",[26],101%
same,"viability, T/C",[27],93.1%
same,"viability, T/C",[28],100%
same,"viability, T/C",[29],98.3%
same,"viability, T/C",[30],102%
same,"viability, T/C",[31],103%
same,"viability, T/C",[32],108%
same,"viability, T/C",[33],93.4%
same,"viability, T/C",[34],101%
same,"viability, T/C",[35],96.5%
same,"viability, T/C",[36],98.4%
CC(Nc1ccc2c(c1)OCCn1cc(N3C(=O)OCC3C(F)F)nc1-2)C(N)=O (centres undefined) + C#Cc1c(F)ccc2cc(O)cc(-c3ncc4c(N5CC6CCC(C5)N6)nc(OCC56CCCN5CC(F)C6)nc4c3F)c12,IC50,second compound 0.0316 µM,> 10 µM
same,IC50,second compound 0.1 µM,> 10 µM
same,IC50,second compound 0.316 µM,> 10 µM
same,IC50,second compound 1 µM,> 10 µM
same,IC50,second compound 3.16 µM,> 10 µM
same,IC50,second compound 10 µM,> 10 µM
same,"viability, T/C",[1],94.1%
same,"viability, T/C",[2],98.6%
same,"viability, T/C",[3],99.9%
same,"viability, T/C",[4],89.7%
same,"viability, T/C",[5],96.6%
same,"viability, T/C",[6],91.8%
same,"viability, T/C",[7],95.7%
same,"viability, T/C",[8],102%
same,"viability, T/C",[9],92.9%
same,"viability, T/C",[10],90%
same,"viability, T/C",[11],100%
same,"viability, T/C",[12],94.1%
same,"viability, T/C",[13],99%
same,"viability, T/C",[14],99.2%
same,"viability, T/C",[15],87.9%
same,"viability, T/C",[16],99.8%
same,"viability, T/C",[17],101%
same,"viability, T/C",[18],94.6%
same,"viability, T/C",[19],106%
same,"viability, T/C",[20],101%
same,"viability, T/C",[21],89%
same,"viability, T/C",[22],97.2%
same,"viability, T/C",[23],87.7%
same,"viability, T/C",[24],103%
same,"viability, T/C",[25],111%
same,"viability, T/C",[26],92.4%
same,"viability, T/C",[27],97.8%
same,"viability, T/C",[28],87.4%
same,"viability, T/C",[29],97.5%
same,"viability, T/C",[30],95.4%
same,"viability, T/C",[31],102%
same,"viability, T/C",[32],95.9%
same,"viability, T/C",[33],79%
same,"viability, T/C",[34],92.6%
same,"viability, T/C",[35],89.1%
same,"viability, T/C",[36],81.2%
